Several values for one entry are separate records, joined by “and”; a condition that tells them apart may be missing. Equal values may be shown once. One block for each compound: values may come before it.
Columns and labels:
[1] = system: male Sprague-Dawley (Charles River) rats; experiment: Radial arm maze test, scopolamine impairment; type: in vivo, rat; conditions: for scopolamine impairment in delay, current and total errors / time compared to scopolamine / delay, current and total errors versus vehicle / time measures versus vehicle: first experiment (Table 2); for scopolamine impairment in delay, current and total errors / time compared to scopolamine: versus scopolamine
Excerpt: The compound of Example 1 was also studied in the radial arm maze test where male Sprague-Dawley (Charles River) rats on a 23-hour food deprivation schedule were trained in an eight arm radial maze with all arms baited. Each session consisted of two maze exposures, with a time limit of 500 seconds for each exposure. After four correct choices (first exposure), each animal was removed from the maze for one hour then returned with only the remaining four arms baited (second exposure). Choice errors, consisting of delay errors (re-entry into any of the four arms chosen during the first exposure) and current errors (re-entry into any of the four arms chosen during the second exposure), as well as total errors were recorded. Durations for each exposure were also recorded. Statistical analysis were preformed using a One-Way Anova with Dunnetts T-Test comparisons.
All compounds were solubilized in distilled water.

M1 muscarinic receptor = biological target: T1, M1 muscarinic receptor (Rattus norvegicus, UniProt P08482); experiment: [3H]-Pirenzepine M1 receptor binding, rat brain tissue; conditions: for IC50: [3H]pirenzepine, rat brain tissue; for M2/M1: ratio of M2 IC50 to M1 IC50
T1 construct: from tissue; host or cells: rat brain tissue
T1 sequence (P08482 1-460): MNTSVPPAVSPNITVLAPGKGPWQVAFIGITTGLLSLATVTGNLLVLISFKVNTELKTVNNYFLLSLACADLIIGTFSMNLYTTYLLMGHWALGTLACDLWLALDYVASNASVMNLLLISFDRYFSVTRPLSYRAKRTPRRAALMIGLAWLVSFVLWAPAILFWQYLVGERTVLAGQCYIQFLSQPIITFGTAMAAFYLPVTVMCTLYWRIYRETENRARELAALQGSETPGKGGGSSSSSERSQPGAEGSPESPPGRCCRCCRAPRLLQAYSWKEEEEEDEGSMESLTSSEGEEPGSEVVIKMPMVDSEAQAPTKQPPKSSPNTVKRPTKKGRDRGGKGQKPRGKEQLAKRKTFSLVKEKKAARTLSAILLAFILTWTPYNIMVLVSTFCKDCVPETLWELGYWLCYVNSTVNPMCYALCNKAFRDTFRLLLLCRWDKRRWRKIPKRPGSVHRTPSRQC

M2 receptor = biological target: T2, M2 receptor (Rattus norvegicus, UniProt P10980); experiment: biochemical; type: binding; conditions: read-out: [3H]QNB M2 IC50
T2 sequence (P10980 1-466): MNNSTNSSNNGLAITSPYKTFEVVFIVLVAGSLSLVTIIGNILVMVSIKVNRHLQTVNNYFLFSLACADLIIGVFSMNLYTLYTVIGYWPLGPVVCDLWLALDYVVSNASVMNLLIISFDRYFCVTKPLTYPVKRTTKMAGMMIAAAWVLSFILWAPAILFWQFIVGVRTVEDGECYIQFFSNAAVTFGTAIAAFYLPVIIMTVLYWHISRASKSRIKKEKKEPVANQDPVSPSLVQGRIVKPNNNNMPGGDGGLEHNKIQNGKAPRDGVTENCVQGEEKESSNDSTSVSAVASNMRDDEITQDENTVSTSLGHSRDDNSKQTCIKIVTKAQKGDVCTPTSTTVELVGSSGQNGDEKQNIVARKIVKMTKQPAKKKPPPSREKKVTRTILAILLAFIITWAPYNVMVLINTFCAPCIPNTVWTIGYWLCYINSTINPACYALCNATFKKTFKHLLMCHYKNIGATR

[2] = system: scopolamine-induced hyperactivity (muscarinic M1-mediated effect); experiment: Reduction of scopolamine-induced hyperactivity (locomotor activity chambers); type: in vivo, rat
Procedure: The motor activity chambers utilize infrared detectors to assess movement in 3 axes. Total activity measures (vertical+horizontal activity) were collected in 15 minute intervals for 1 hour post-injection. Total activity measures were cumulated across all time intervals for statistical analysis.

memory loss = conditions: cited from earlier work
[3] = system: Alzheimer's patients and healthy elderly patients; conditions: cited from earlier work; for clinical efficacy: due to side-effects, short duration of action, narrow active dose range
[4] = Table 3, 1.0 mg/kg i.p. + scopolamine HBr 0.3 mg/kg s.c.
[5] = Table 3, 3.0 mg/kg i.p. + scopolamine HBr 0.3 mg/kg s.c.
[6] = Table 3, 10.0 mg/kg i.p. + scopolamine HBr 0.3 mg/kg s.c.
[7] = Table 2, physostigmine 0.01 mg/kg i.p., scopolamine-impaired
[8] = Table 2, scopolamine HBr 0.3 mg/kg s.c. alone
[9] = Table 3, scopolamine HBr 0.3 mg/kg s.c. alone
[10] = Table 2, arecoline 10.0 mg/kg i.p., scopolamine-impaired

Compound: CNC(=O)Oc1ccc2c(c1)[C@]1(C)CCN(C)[C@@H]1N2C [Physostigmine, physostigmine]
Mean Errors, Current [1, 7]: 0.88 | Mean Errors, Delay [1, 7]: 1.13 | Mean Errors, Total [1, 7]: 2.00 | Mean Time, Current [1, 7]: 2.01 min | Mean Time, Delay [1, 7]: 1.14 min | Mean Time, Total [1, 7]: 3.25 min | scopolamine impairment in delay, current and total errors [1]: significant reduction in scopolamine impairment in delay, current and total errors | time compared to scopolamine [1]: significant time reduction compared to scopolamine in both delay time (first exposure) and total time | delay, current and total errors versus vehicle [1]: did not | reversal of muscarinic antagonist-induced memory deficit, humans and monkeys (memory loss; humans and monkeys): can be reversed | clinical efficacy [3]: neither physostigmine nor arecoline have clinical efficacy

Compound: lecithin
improvement on cognitive tests ([3]; Alzheimer's patients and healthy elderly patients): No significant improvement

Compound: Cc1nnc(NCCCN2CCCCC2)c2cc3ccccn3c12 [Example 8, 4-Methyl-N-[3-(1-piperidinyl)propyl]pyridazino[4,5-b]indolizin-1-amine]
IC50 (M1 muscarinic receptor): 110 nM | M2/M1 (M1 muscarinic receptor): 13 | IC50 (M2 receptor): 1400 nM

Compound: Cc1nnc(NCCCN(C)C)c2cc3ccccn3c12 [Example 3, N,N-Dimethyl-N'-(4-methylpyridazino[4,5-b]indolizin-1-yl)-1,3-propanediamine]
IC50 (M1 muscarinic receptor): 600 nM | M2/M1 (M1 muscarinic receptor): 24 | IC50 (M2 receptor): 9500 nM

Compound: CN1[C@@H]2C[C@@H](OC(=O)[C@H](CO)c3ccccc3)C[C@H]1[C@@H]1O[C@@H]12 [Scopolamine, scopolamine]
Mean Errors, Current [1, 8]: 3.63 | Mean Errors, Total [1, 8]: 6.38 | Mean Time, Current [1, 8]: 2.78 min | Mean Time, Delay [1, 8]: 2.28 min | Mean Time, Total [1, 8]: 5.27 min | Mean Errors, Current [1, 9]: 3.57 | Mean Errors, Total [1, 9]: 5.72 | Mean Time, Current [1, 9]: 2.90 min | Mean Time, Delay [1, 9]: 2.01 min | Mean Time, Total [1, 9]: 5.14 min | delay, current and total errors versus vehicle [1]: significant increase in delay, current and total errors versus vehicle | time measures versus vehicle [1]: increased all time measures compared to vehicle | total errors compared to vehicle ([1]; second experiment (Table 3)): significantly increased total errors compared to vehicle | time measures compared to vehicle ([1]; second experiment (Table 3), scopolamine alone): increased all time measures compared to vehicle | memory loss induced (memory loss; normal humans and animals (cat, rat, monkey)): Memory loss | total activity measure ([2]; scopolamine 1.7 mg/kg s.c. alone): significant increase

Compound: COC(=O)C1=CCCN(C)C1 [Arecoline, arecoline]
Mean Errors, Current [1, 10]: 0.75 | Mean Errors, Delay [1, 10]: 1.50 | Mean Errors, Total [1, 10]: 2.25 | Mean Time, Current [1, 10]: 2.32 min | Mean Time, Delay [1, 10]: 1.50 min | Mean Time, Total [1, 10]: 4.06 min | scopolamine impairment in delay, current and total errors [1]: significant reduction in scopolamine impairment in delay, current and total errors | time compared to scopolamine [1]: no significant time reduction versus scopolamine | delay, current and total errors versus vehicle [1]: did not | time measures versus vehicle [1]: significant time increase versus vehicle | reversal of muscarinic antagonist-induced memory deficit, rats (memory loss; rats): can be reversed | dose active in scopolamine-induced hyperactivity test ([2]; route not stated): about 5.4 mg/kg | clinical efficacy [3]: neither physostigmine nor arecoline have clinical efficacy

More lines, in order of falling IC50 (M1 muscarinic receptor), values ahead:

IC50 (M1 muscarinic receptor): 2450 nM | M2/M1 (M1 muscarinic receptor): 8 | IC50 (M2 receptor): 19000 nM
Compound: Cc1nnc(NCCN2CCOCC2)c2cc3ccccn3c12 [Example 4, N-[2-(4-Morpholinyl)ethyl]-4-methylpyridazino[4,5-b]indolizin-1-amine]

IC50 (M1 muscarinic receptor): 1000 nM | M2/M1 (M1 muscarinic receptor): 29 | IC50 (M2 receptor): 29000 nM
Compound: Cc1nnc(N2CCN(C)CC2)c2cc3ccccn3c12 [Example 7, 4-Methyl-1-(4'-methylpiperazinyl)pyridazino[4,5-b]indolizine]

IC50 (M1 muscarinic receptor): 660 nM | M2/M1 (M1 muscarinic receptor): 18 | IC50 (M2 receptor): 12000 nM
Compound: Cc1nnc(NCCN(C)C)c2cc3ccccn3c12 [Example 2]

IC50 (M1 muscarinic receptor): 270 nM | M2/M1 (M1 muscarinic receptor): 44 | IC50 (M2 receptor): 12000 nM
Compound: Cc1nnc(NCCCN2CCOCC2)c2cc3ccccn3c12 [Example 5, N-[3-(4-Morpholinyl)propyl]-4-methylpyridazino[4,5-b]indolizin-1-amine]

IC50 (M1 muscarinic receptor): 260 nM | M2/M1 (M1 muscarinic receptor): 24 | IC50 (M2 receptor): 6200 nM
Compound: CCN1CCCC1CNc1nnc(C)c2c1cc1ccccn12 (stereo not drawn) [Example 6, N-[(1-Ethyl-2-pyrrolidinyl)methyl]-4-methylpyridazino[4,5-b]-indolizin-1-amine]

IC50 (M1 muscarinic receptor): 150 nM | M2/M1 (M1 muscarinic receptor): 19 | IC50 (M2 receptor): 2800 nM
Compound: Cc1nnc(NCCCN2CCN(C)CC2)c2cc3ccccn3c12 [Example 9, 4-Methyl-N-[4'-methyl(1-piperazinyl)propyl]pyridazino[4,5-b]indolizin-1-amine]

IC50 (M1 muscarinic receptor): 140 nM | M2/M1 (M1 muscarinic receptor): 25 | IC50 (M2 receptor): 3500 nM
Compound: Cc1nnc(NCCCCN2CCN(C)CC2)c2cc3ccccn3c12 [Example 10, 4-Methyl-N-[4'-methyl(1-piperazinyl)butyl]pyridazino[4,5-b]indolizin-1-amine]

IC50 (M1 muscarinic receptor): 98 nM | M2/M1 (M1 muscarinic receptor): 42 | IC50 (M2 receptor): 4100 nM
Compound: CCN(CC)CCCNc1nnc(C)c2c1cc1ccccn12 [Example 1, 1-[(3'-Diethylaminopropyl)amino]-4-methylpyridazino[4,5-b]indolizine]
total time compared to scopolamine ([1]; 1.0 mg/kg i.p., Table 3): reduction in time impairment compared to scopolamine | delay time (first exposure) versus vehicle ([1]; 3.0 mg/kg i.p., Table 3): significantly increased | current and total errors, dose trend ([1]; 1, 3, 10 mg/kg i.p., Table 3): definite dose-related decrease in scopolamine impairment | delay errors, dose trend ([1]; 1, 3, 10 mg/kg i.p., Table 3): no dose-related trend | total time versus vehicle ([1]; 3.0 and 10 mg/kg i.p., Table 3): significantly increased | Mean Errors, Current [1, 4]: 2.00 | Mean Errors, Delay [1, 4]: 1.83 | Mean Errors, Total [1, 4]: 3.67 | Mean Time, Current [1, 4]: 1.83 min | Mean Time, Delay [1, 4]: 1.03 min | Mean Time, Total [1, 4]: 2.99 min | Mean Errors, Current [1, 5]: 1.13 | Mean Errors, Delay [1, 5]: 2.38 | Mean Errors, Total [1, 5]: 3.50 | Mean Time, Current [1, 5]: 2.92 min | Mean Time, Delay [1, 5]: 1.95 min | Mean Time, Total [1, 5]: 4.96 min | Mean Errors, Current [1, 6]: 0.75 | Mean Errors, Delay [1, 6]: 2.00 | Mean Errors, Total [1, 6]: 2.75 | Mean Time, Current [1, 6]: 3.32 min | Mean Time, Delay [1, 6]: 1.63 min | Mean Time, Total [1, 6]: 5.15 min | impairment caused by scopolamine ([1]; all doses tested (1, 3, 10 mg/kg i.p.), Table 3): reduced the impairment caused by scopolamine | current time (second exposure) versus vehicle ([1]; all groups, Table 3): significantly increased | cognitive impairment due to cholinergic hypofunction ([1]; overall conclusion): can reduce cognitive impairment | total activity versus vehicle-only controls ([2]; 30 and 54 mg/kg i.p., scopolamine 1.7 mg/kg s.c.): did not differ from vehicle-only controls | dose active in reducing scopolamine-induced hyperactivity ([2]; i.p., scopolamine 1.7 mg/kg s.c., rats): 30 mg/kg and 54 mg/kg
